Measurements as given in patent US20080200412A1, “Astrocyte Elevated Gene-1 And Its Promoter In Treatments For Neurotoxicity And Malignancy” (priority 2005, published 2008).

Legend:
AEG-1 promoter [1] = assay: AEG-1 promoter luciferase reporter in primary human fetal astrocytes; type: cell-based; conditions: PHFA, 0.1 to 100 μM
Description: (§1) Construction of plasmids: The full-length AEG-1 promoter DNA used in this analysis has a 3′ boundary 1 base-pair 5′ to the translation initiation site (ATG codon) of the AEG-1 gene (designated as nucleotide 1 in FIG. 7; SEQ ID NO:2) and extends 2759 bp upstream. The genomic DNA region corresponding to the AEG-1 promoter was isolated by PCR using the PCRx Enhancer System (Invitrogen, Carlsbad, Calif.) with forward primer: 5′-[…] -3′ (KpnI site underlined) (SEQ ID NO:4) and reverse primer: 5′-[…]-3′ (XhoI site underlined) 9SEQ ID NO:5). PCR conditions were as follows: Denaturation 95° C., 30 sec; annealing 55° C., 30 sec and extension 68° C., 3 min, repeated for 30 cycles. This region of genomic DNA was cloned into the luciferase reporter pGL-3 basic (Promega, Madison, Wis.) using restriction sites in KpnI and XhoI in the plasmid polylinker.
(§2) Other mediators of AEG-1 promoter activity. The HIV-Tat (Simm et al Virology 2002;294(1);1-12) and Nef (Lathi et al., Virology. 2003; 310(1):190-196) gene products were tested on the full length AEG-1 promoter at a plasmid expression vector concentration range of 50 to 800 ng/transfection point (FIG. 16). […] Thus, the AEG-1 promoter appears to be responsive to protein products produced by HIV infection of cells.

AEG-1 promoter [2] = assay: AEG-1 promoter luciferase reporter in CREF and CREF-ras fibroblasts; type: cell-based, rat
Description: as §1
(§3) Transient transfection and luciferase assay. CREF, CREF-ras, FM516, FM516-ras, THV and THR cells were plated on 24-well plates one day prior to transfection. […] Luciferase activity was measured and normalized against β-galactosidase activity produced by a co-transfected vector as described (17). […]
(§4) Effect of inhibition of PI3 Kinase, MEK kinase and p38 MAP kinase on AEG-1 promoter activity. Signal transduction pathways impinging on or directly downstream of the RAS pathway were analyzed to determine their effect on AEG-1 promoter activity (FIGS. 13 A-E). […]

AEG-1 promoter [3] = assay: AEG-1 promoter luciferase reporter in C2 and C10 cell lines; type: cell-based, human
Description: as §1
Cell treatment with inhibitors. The PI3 kinase inhibitor LY294002, MEK inhibitor PD 98059 and p38 MAP Kinase inhibitor SB 203580 were used to treat cells at the indicated concentration and to determine the effect of inhibition of the respective pathway on AEG-1 promoter activity using the AEG-1 luciferase reporter.
The colorectal cancer cell line HCT116 which is mutated in the k-RAS gene was also tested for AEG-1 promoter activity in addition to two related cell lines. […]

AEG-1 promoter [4] = assay: AEG-1 promoter luciferase reporter in THV/THR astrocytes; type: cell-based, human
Description: as §1, §3, §4

EAAT2 promoter = conditions: PHFA; cited from earlier work
AEG-1 [5] = conditions: PHFA, by 7-days; cited from earlier work
AEG-1 promoter [6] = assay: AEG-1 promoter luciferase reporter co-transfected with HIV Tat or Nef expression constructs; type: cell-based, human; conditions: plasmid expression vector 50 to 800 ng/transfection point
Description: as §1, §2

[7] = system: glutamate transporter (EAAT2); conditions: astrocytes; cited from earlier work
AEG-1 [8] = assay: Western blot of AEG-1 protein after siRNA transfection; type: cell-based, human; conditions: U87-MG and U251-MG cells transiently transfected, 24 hours
Experimental: Western blotting and immunofluorescence microscopy. Whole cell lysates were prepared and Western blotting was performed as described (17). Antibodies used in specific experiments are described in the text or in corresponding figure legends. For immunofluorescence microscopy, IM-PHFA, grown on chamber slides, were probed with anti-AEG-1 and anti-calreticulin primary antibodies and FITC-conjugated anti-chicken and rhodamine-conjugated anti-rabbit secondary antibodies, respectively. Alternatively, IM-PHFA were loaded with Mito-Tracker (Molecular probes) and then immunocytochemistry was performed using anti-AEG-1 antibody and rhodamine-conjugated anti-chicken secondary antibody. Cells were visualized using a Zeiss confocal laser scanning microscope (LSM510) and a 100× objective.
Construction of AEG-1 siRNA. The sequence (5′ AGCAGCCACCAGAGATTGA 3′) (SEQ ID NO:3) used for AEG-1 silencing corresponds to the 449-467 nucleotides of the AEG-1 ORF. The siRNA was constructed with Silencer™ siRNA kit according to manufacturer's protocol. A control scrambled siRNA was used to determine specificity of the inhibition and the sequence 5′ GGGTCGTCTA TAGGGATCGAT 3′(SEQ ID NO:10)
Effect of inhibition of AEG-1 on anchorage independent growth of malignant glioma cells. U87-MG and U251-MG cells were transiently transfected with siRNA for the AEG-1 gene and control scrambled siRNA using Lipofectamine. […]

U87-MG cells [9] = assay: Matrigel invasion assay (Transwell); type: cell-based, human; conditions: 72 h, vs control scrambled siRNA
Experimental: (§5) Matrigel invasion assay. Cell were cultured, transfected and harvested essentially as described above for soft-agar colony formation assays. Cells were mixed with Matrigel and plated on […] pore-size tissue culture inserts. After 72 h or a pre-optimized time depending on the cell line, Matrigel was removed and the inserts were stained with Geimsa stain to enumerate the number of cells that had passed through the tissue culture insert membrane.
(§6) Effect of inhibition of AEG-1 on invasiveness of malignant glioma cells. U87-MG and U251-MG cells were transiently transfected with siRNA for AEG-1 and with control scrambled siRNA using Lipofectamine. 24 hours after transfection cells were seeded in the upper compartment of a Transwell™ unit (Becton Dickinson) and then incubated for 72 h at 37° C. The lower compartment contained 0.5 ml of DMEM and 5% FBS. At the end of the invasion assay, the filters were removed, fixed, and stained.

U251-MG cells [10] = assay: Matrigel invasion assay (Transwell); type: cell-based, human; conditions: 72 h, vs control scrambled siRNA
Experimental: as §5, §6

U87-MG cells [11] = assay: Soft agar cloning efficiency; type: cell-based, human; conditions: transient transfection vs control scrambled siRNA
Experimental: (§7) Soft agar colony formation and Matrigel invasion assay. FM-516SV cells (2×10^5 cells/6-cm plate) plated the previous day were transfected with either pcDNA3.1, pcDNA3.1 AEG-1, T24 Ha-ras (20 μg each), or AEG-1/T24 Ha-ras (10+10 μg). Two days later, transfected cells were harvested by trypsinization and re-plated in soft agar (0.4%) overlaying 0.8% base agar. Two weeks later, colonies over ˜50 cells in soft agar were identified microscopically and counted. Soft agar colony formation assay was also performed with FM-516SV AEG-1 stable transfectants established by transfection of pcDNA3.1 AEG-1 and T24 Ha-ras and G418 selection.
(§8) Effect of inhibition of AEG-1 on anchorage independent growth of malignant glioma cells. U87-MG and U251-MG cells were transiently transfected with siRNA for the AEG-1 gene and control scrambled siRNA using Lipofectamine. 24 hours after transfection 1×10^5 cells from the transfection mixture were replated to determine agar cloning efficiency. In parallel, cell extracts were prepared for western blot analysis.

U251-MG cells [12] = assay: Soft agar cloning efficiency; type: cell-based, human; conditions: transient transfection vs control scrambled siRNA
Experimental: as §7, §8

Compound: Nc1ncnc2c1nc(Br)n2[C@@H]1O[C@@H]2COP(=O)(O)O[C@H]2[C@H]1O [Bromo-cyclicAMP]
- AEG-1 promoter activity (luciferase) (AEG-1 promoter [1]): dose responsive stimulation

Compound: COc1cccc(-c2cc(=O)c3ccccc3o2)c1N [PD 98059]
- AEG-1 promoter activity (luciferase) (AEG-1 promoter [2]; 20 and 50 μM): dose dependent inhibition
- AEG-1 promoter activity, responsiveness to inhibitor (AEG-1 promoter [3]): not responsive
- AEG-1 promoter activity (luciferase) (AEG-1 promoter [4]; 20 and 50 μM): dose dependent inhibition

Compound: C[S+]([O-])c1ccc(-c2nc(-c3ccncc3)c(-c3ccc(F)cc3)[nH]2)cc1 (centres unmarked) [SB 203580]
- AEG-1 promoter activity (luciferase) (AEG-1 promoter [2]; 5 μM): inhibition of promoter activity was observed
- AEG-1 promoter activity (luciferase) (AEG-1 promoter [4]; 5 μM): inhibition of promoter activity was observed

Compound: TNFα
- decrease of EAAT2 promoter activity (EAAT2 promoter): ~2.5 fold
- AEG-1 expression over control (AEG-1 [5]): 3 fold

Compound: Tat gene product: HIV-Tat gene product expressed from a co-transfected plasmid expression vector
- stimulation of AEG-1 promoter activity (AEG-1 promoter [6]): 1.5 fold

Compound: gp120: HIV-1 gp120 envelope protein used to treat astrocytes
- decrease of EAAT2 promoter activity (EAAT2 promoter): ~2.5 fold
- AEG-1 expression over control (AEG-1 [5]): 3 fold
- reduction in glutamate uptake [7]: ~60%

Compound: siRNA for AEG-1: siRNA with sequence 5′ AGCAGCCACCAGAGATTGA 3′ (SEQ ID NO:3), corresponds to nucleotides 449-467 of the AEG-1 ORF (listed as DNA, chemistry not given here)
- AEG-1 protein knock down (Western blot) (AEG-1 [8]): efficient protein knock down
- Matrigel invasion (U87-MG cells [9]): significantly inhibited
- Matrigel invasion (U251-MG cells [10]): significantly inhibited
- agar cloning efficiency (U87-MG cells [11]): significantly inhibited
- agar cloning efficiency (U251-MG cells [12]): significantly inhibited
